Tests used:
Human Axl = Human Axl (Homo sapiens (Human), UniProt P30530, Q764R); assay: Human AXL kinase assay (33P radiometric, KinaseProfiler); assay type: biochemical; conditions: 10 μM ATP
Method: (§1) Kinase activity and compound inhibition were investigated using the ^33P-Phosphoryl transfer radiometric kinase assay, performed using the KinaseProfiler™ service of Eurofins Pharma Discovery Services UK Limited. Dose-response experiments were performed using nine compound concentrations in a 96-well microtiter plate. For each assay, all compounds were prepared to a 50× final assay concentration (50 μM) in 100% DMSO, then diluted in a half-log series, with the final top concentration at 1 μM. This working stock of the compound was added to the assay well as the first component in the reaction, followed by the remaining components as detailed in the following assay protocols below. The positive control wells (100% kinase activity) contain all components of the reaction including 2% DMSO (control for solvent effects), except the compound of interest. Blank wells contain all components of the reaction, with the reference inhibitor, staurosporine. This reference compound was used to abolish kinase activity and generated the 0% kinase activity base-line. IC50 values were calculated by nonlinear regression analysis using the sigmoidal dose-response (variable slope) curve fit on XLFit version 5.3 (ID Business Solutions).
Human Axl (residues H473-A894 with Q764R, 161 nM) was incubated with 8 mM MOPS pH 7.0, 0.2 mM EDTA, 250 μM KKSRGDYMTMQIG (SEQ ID NO. 43), 10 mM magnesium acetate and 10 μM [γ-33P-ATP]. The reaction was initiated by the addition of the Mg/ATP mix. After incubation for 40 minutes at room temperature, the reaction was stopped by the addition of phosphoric acid to a concentration of 0.5%. A reaction aliquot of 10 μL was then spotted onto a P30 filtermat and washed four times for 4 minutes in 0.425% phosphoric acid and once in methanol prior to drying and scintillation counting. Incorporated ^33P was measured using the Wallac Microbeta scintillation counter (Perkin Elmer).

Mer = Mer (Homo sapiens (Human), UniProt Q12866); assay: Human Mer kinase assay (33P radiometric, KinaseProfiler); assay type: biochemical; conditions: 10 μM ATP
Mer, sequence (Q12866 557-882): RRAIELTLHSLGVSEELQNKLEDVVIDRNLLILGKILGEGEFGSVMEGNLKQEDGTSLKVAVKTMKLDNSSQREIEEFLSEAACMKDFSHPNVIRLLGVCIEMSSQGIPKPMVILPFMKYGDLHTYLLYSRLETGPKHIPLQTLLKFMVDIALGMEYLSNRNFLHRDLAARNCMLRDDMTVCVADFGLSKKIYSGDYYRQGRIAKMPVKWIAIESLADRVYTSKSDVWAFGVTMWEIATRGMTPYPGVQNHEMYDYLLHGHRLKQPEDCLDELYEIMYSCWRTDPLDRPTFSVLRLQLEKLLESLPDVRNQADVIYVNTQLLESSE
Method: as §1
Human Mer (residues R557-E882 with H628Q and R794A, 0.7 nM) was incubated with 8 mM MOPS pH 7.0, 0.2 mM EDTA, 30 mM NaCl, 250 μM GGMEDIYFEFMGGKKK (SEQ ID NO. 44), 10 mM magnesium acetate, and 10 μM [γ-^33P-ATP]. The reaction was initiated by the addition of the Mg/ATP mix. After incubation for 40 minutes at room temperature, the reaction was stopped by the addition of phosphoric acid to a concentration of 0.5%. A reaction aliquot of 10 μL was then spotted onto a P30 filtermat and washed four times for 4 minutes in 0.425% phosphoric acid and once in methanol prior to drying and scintillation counting. Incorporated ^33P was measured using the Wallac Microbeta scintillation counter (Perkin Elmer).

Met [1] = target: T1, Met (Homo sapiens (Human), UniProt P08581); assay: Human Met kinase assay (33P radiometric, KinaseProfiler); assay type: biochemical; conditions: 10 μM ATP, read-out: c-Met IC50
Method: as §1
Human Met (residues R974-S1390 with A1209G and V1290L, 3.4 nM) was incubated with 8 mM MOPS pH 7.0, 0.2 mM EDTA, 250 μM KKKGQEEEYVFIE (SEQ ID NO. 45), 1 mM sodium orthovanadate, 5 mM […], 10 mM magnesium acetate, and 10 μM [γ-33P-ATP]. The reaction was initiated by the addition of the Mg/ATP mix. After incubation for 40 minutes at room temperature, the reaction was stopped by the addition of phosphoric acid to a concentration of 0.5%. A reaction aliquot of 10 μL was then spotted onto a P30 filtermat and washed four times for 4 minutes in 0.425% phosphoric acid and once in methanol prior to drying and scintillation counting. Incorporated 33P was measured using the Wallac Microbeta scintillation counter (Perkin Elmer).

Met [2] = target: T1, Met; assay: Met autophosphorylation ELISA in PC-3 cells; assay type: cell-based; conditions: cellular, HGF-stimulated, phospho-Met ELISA, read-out: c-Met IC50
How it was run: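 PC-3 cells serum-starved 3 h were treated 1 h with an 8-point compound series (0.3% DMSO), then stimulated 10 min with 100 ng/mL human HGF. Phospho-Met (panTyr) in lysates was measured by sandwich ELISA against DMSO (100%) and reference-inhibitor (0%) controls, and IC50 came from a 4-parameter logistic fit.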
Target sequence in this assay (P08581 25-1390): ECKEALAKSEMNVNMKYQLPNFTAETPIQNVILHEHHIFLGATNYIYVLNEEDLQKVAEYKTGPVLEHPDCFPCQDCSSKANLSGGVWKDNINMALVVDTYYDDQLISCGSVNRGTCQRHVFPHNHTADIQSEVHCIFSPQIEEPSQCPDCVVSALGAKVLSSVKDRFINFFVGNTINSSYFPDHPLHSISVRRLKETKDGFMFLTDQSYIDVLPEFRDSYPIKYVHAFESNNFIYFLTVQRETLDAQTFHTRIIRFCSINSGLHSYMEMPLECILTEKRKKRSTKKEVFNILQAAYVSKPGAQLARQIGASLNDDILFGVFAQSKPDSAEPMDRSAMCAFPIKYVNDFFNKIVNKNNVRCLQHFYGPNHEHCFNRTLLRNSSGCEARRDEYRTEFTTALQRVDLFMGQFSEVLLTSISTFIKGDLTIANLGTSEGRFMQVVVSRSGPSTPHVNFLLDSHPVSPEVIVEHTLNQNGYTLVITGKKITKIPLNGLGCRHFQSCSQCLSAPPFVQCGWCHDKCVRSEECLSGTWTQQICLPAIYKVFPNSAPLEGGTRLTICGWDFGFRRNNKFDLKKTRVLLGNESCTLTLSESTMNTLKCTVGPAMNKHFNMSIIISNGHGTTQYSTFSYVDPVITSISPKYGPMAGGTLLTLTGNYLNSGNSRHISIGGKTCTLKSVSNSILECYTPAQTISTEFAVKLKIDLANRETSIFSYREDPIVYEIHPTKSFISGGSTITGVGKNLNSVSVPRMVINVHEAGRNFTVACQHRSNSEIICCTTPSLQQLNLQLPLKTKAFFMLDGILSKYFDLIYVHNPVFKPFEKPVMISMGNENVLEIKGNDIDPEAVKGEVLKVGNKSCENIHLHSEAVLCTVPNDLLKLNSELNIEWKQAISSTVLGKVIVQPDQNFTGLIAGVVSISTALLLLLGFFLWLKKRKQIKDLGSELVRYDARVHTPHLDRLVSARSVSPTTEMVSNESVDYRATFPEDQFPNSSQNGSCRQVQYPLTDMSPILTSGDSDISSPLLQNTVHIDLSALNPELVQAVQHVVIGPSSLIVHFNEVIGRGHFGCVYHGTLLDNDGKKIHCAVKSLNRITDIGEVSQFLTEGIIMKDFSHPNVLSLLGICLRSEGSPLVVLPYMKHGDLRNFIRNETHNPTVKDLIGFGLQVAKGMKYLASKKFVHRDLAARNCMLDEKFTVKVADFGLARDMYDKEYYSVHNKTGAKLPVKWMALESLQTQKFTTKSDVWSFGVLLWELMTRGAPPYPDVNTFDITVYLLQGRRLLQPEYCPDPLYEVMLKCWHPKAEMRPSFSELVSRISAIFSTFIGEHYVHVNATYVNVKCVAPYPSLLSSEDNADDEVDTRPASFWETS

Human Axl, sequence (P30530 473-894 Q764R): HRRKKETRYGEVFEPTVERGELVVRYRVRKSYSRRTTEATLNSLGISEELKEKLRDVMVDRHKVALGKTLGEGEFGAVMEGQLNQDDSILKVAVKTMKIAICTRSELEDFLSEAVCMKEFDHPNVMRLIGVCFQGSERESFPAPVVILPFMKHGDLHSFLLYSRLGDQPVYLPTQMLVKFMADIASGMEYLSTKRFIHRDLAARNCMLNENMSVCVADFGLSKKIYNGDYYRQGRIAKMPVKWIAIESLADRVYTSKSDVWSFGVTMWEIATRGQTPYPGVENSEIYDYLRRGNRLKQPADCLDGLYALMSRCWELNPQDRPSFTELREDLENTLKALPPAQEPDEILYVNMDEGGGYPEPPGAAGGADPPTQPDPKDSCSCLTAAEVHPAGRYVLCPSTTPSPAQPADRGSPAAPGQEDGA

Row | Structure (SMILES) | IC50 (Human Axl) | IC50 (Mer) | IC50 (Met [1]) | IC50 (Met [2])
1 | COc1cc2nccc(Oc3ccc(NC(=O)C4(C(=O)Nc5ccc(F)cc5)CC4)cn3)c2cc1C(N)=O [Compound 16, 1-N′-[6-(6-Carbamoyl-7-methoxyquinolin-4-yl)oxypyridin-3-yl]-1-N-(4-fluorophenyl)-cyclopropane-1,1-dicarboxamide] | 10 to 100 nM | ≤ 10 nM | ≤ 10 nM | 100 to 300 nM
2 | CNC(=O)c1cc2c(Oc3ccc(NC(=O)C4(C(=O)Nc5ccc(F)cc5)CC4)cn3)ccnc2cc1OC [Compound 17, 1-N-(4-Fluorophenyl)-1-N′-[6-[7-methoxy-6-(methylcarbamoyl)quinolin-4-yl]oxypyridin-3-yl]cyclopropane-1,1-dicarboxamide] | 10 to 100 nM | 10 to 100 nM | 10 to 100 nM | 100 to 300 nM
3 | COc1cc2nccc(Oc3ncc(NC(=O)C4(C(=O)Nc5ccc(F)cc5)CC4)cc3Cl)c2nc1OC [Compound 80, 1-N′-[5-Chloro-6-[(6,7-dimethoxy-1,5-naphthyridin-4-yl)oxy]pyridin-3-yl]-1-N-(4-fluorophenyl)cyclopropane-1,1-dicarboxamide] | 10 to 100 nM | 10 to 100 nM | 10 to 100 nM | 10 to 100 nM
4 | COc1cc2nccc(Oc3ccc(NC(=O)C4(C(=O)Nc5ccc(F)cc5)CC4)cn3)c2nc1OC [Compound 81, 1-N′-[6-[(6,7-Dimethoxy-1,5-naphthyridin-4-yl)oxy]pyridin-3-yl]-1-N-(4-fluorophenyl)cyclopropane-1,1-dicarboxamide] | 10 to 100 nM | 10 to 100 nM | 10 to 100 nM | 100 to 300 nM
5 | COc1cc2nccc(Oc3ncc(NC(=O)C4(C(=O)Nc5ccc(F)cc5)CC4)cc3F)c2nc1OC [Compound 82, 1-N′-[6-[(6,7-Dimethoxy-1,5-naphthyridin-4-yl)oxy]-5-fluoropyridin-3-yl]-1-N-(4-fluorophenyl)cyclopropane-1,1-dicarboxamide] | ≤ 10 nM | ≤ 10 nM | ≤ 10 nM | 10 to 100 nM

Further lines, results first:

Row | IC50 (Human Axl) | IC50 (Mer) | IC50 (Met [1]) | IC50 (Met [2]) | Structure (SMILES)
6 | ≤ 10 nM | ≤ 10 nM | ≤ 10 nM | 100 to 300 nM | COC(=O)c1cc2c(Oc3ccc(NC(=O)C4(C(=O)Nc5ccc(F)cc5)CC4)cn3)ccnc2cc1OC [Compound 10, Methyl 4-[5-[[1-[(4-fluorophenyl)carbamoyl]cyclopropanecarbonyl]-amino]pyridin-2-yl]oxy-7-methoxyquinoline-6-carboxylate]
7 | ≤ 10 nM | ≤ 10 nM | ≤ 10 nM | 10 to 100 nM | COC(=O)c1cc2c(Oc3ncc(NC(=O)C4(C(=O)Nc5ccc(F)cc5)CC4)cc3Cl)ccnc2cc1OC [Compound 11, Methyl 4-[3-chloro-5-[[1-[(4-fluorophenyl)carbamoyl]cyclopropanecarbonyl]-amino]pyridin-2-yl]oxy-7-methoxyquinoline-6-carboxylate]
8 | ≤ 10 nM | ≤ 10 nM | ≤ 10 nM | 10 to 100 nM | COc1cc2nccc(Oc3ncc(NC(=O)C4(C(=O)Nc5ccc(F)cc5)CC4)cc3Cl)c2cc1C(N)=O [Compound 18, 1-N′-[6-(6-Carbamoyl-7-methoxyquinolin-4-yl)oxy-5-chloropyridin-3-yl]-1-N-(4-fluorophenyl)cyclopropane-1,1-dicarboxamide]
9 | ≤ 10 nM | ≤ 10 nM | ≤ 10 nM | 10 to 100 nM | COc1cc2nccc(Oc3ccc(NC(=O)C4(C(=O)Nc5ccc(F)cc5)CC4)cn3)c2cc1-c1cn[nH]c1 [Compound 60, 1-N-(4-Fluorophenyl)-1-N′-[6-[7-methoxy-6-(1H-pyrazol-4-yl)quinolin-4-yl]oxypyridin-3-yl]cyclopropane-1,1-dicarboxamide]

Source: patent US11673897B2, “Compounds for the treatment of kinase-dependent disorders” (Exelixis, Inc., priority 2018, dated 2023)
